Assay results as given in publication PMC6359636, “Advances in Drug Delivery and Biomaterials: Facts and Vision” (Pharmaceutics, 2019).
Peptide text beside a SMILES is read from it. * marks the point of attachment. 5FAM = O=C1OC2(c3ccc(O)cc3Oc3cc(O)ccc32)c2ccc(C(=O)*)cc21

What was measured:
[1] = Franz cells, porcine cornea, preliminary data, relevant variability
Protocol: To assess their ex vivo corneal permeability, permeation experiments were carried out using fresh and whole porcine corneas mounted on Franz cells.

[2] = rat, in vivo
Protocol: In in vivo studies, male Sprague−Dawley rats received a femoral intravenous infusion of IND or oral administrations of MPs and free IND; the plasma of rats was analyzed by HPLC over time in order to evaluate the absolute bioavailability of oral doses.

intracellular S. aureus = assay: Intracellular antibacterial activity in keratinocytes; assay type: cell-based, Staphylococcus aureus; details: HaCaT cells
[3] = ROS-scavenging activity, DPPH assay (SFNs); assay type: biochemical
Source text: Osteoarthritis (OA) represents a musculoskeletal pathological condition characterized by chondrocytes apoptosis, extracellular matrix degradation and consequent cartilage degeneration; the main mechanisms involved in OA onset seem to be oxidative stress and the overproduction of pro-inflammatory cytokines, such as interleukin-1β (IL-1β) and tumour necrosis factor-α (TNF-α). Systemic therapy with anti-inflammatory drugs represents the “gold standard” in OA treatment, and Celecoxib is the first choice. However, it presents limited water solubility, poor in vivo bioavailability, fast metabolism and bloodstream clearance^2. Nanomedicine is considered a good strategy to overcome these problems; in fact, nanosystems are able to improve the solubility and the bioavailability of poorly-soluble drugs, and to control/target the drug release, avoiding undesired side effects. Thanks to its biocompatibility and biodegradability, silk fibroin represents the ideal biomaterial candidate for the nanoparticle production. In this study, we selected silk fibroin nanoparticles (SFNs) as the delivery system for two anti-inflammatory hydrophobic drugs: celecoxib (CXB) and curcumin (CUR). […] The safety and efficacy of nanosystems were determined in terms of hemolytic properties, cytotoxicity, ROS-scavenging activity and anti-inflammatory potency in an OA in vitro cell model. […]

[4] = no reference given; cited from earlier work
blood clots = assay: Blood clot resolution in murine mesentery venules; assay type: in vivo
Source text: (§2) Here, a novel thrombolytic nanoagent is realized by conjugating directly the clinical formulation of tPA to the porous structure of soft discoidal polymeric nanoconstructs (tPA-DPNs).

[5] = after 3 h of exposure to serum proteins
Source text: as §2

[6] = test system: Human Corneal Epithelial (HCE) cells; assay: Inflammation model in HCE cells, secreted IL-6 by ELISA; assay type: cell-based; details: 72 h
HeLa and G361 [7] = assay: Photodynamic viability test (MTT); assay type: cell-based; details: 414 nm irradiation
Protocol: (§1) Photodynamic therapy (PDT) is currently another option for the treatment of tumors. This therapy is a combination of a photodynamically-active substance and light of a suitable wavelength. Two tumor cell cultures—HeLa and G361 were used for the in vitro study. Cells were cultured in 96-well plates with TMPyP and ZnTPPS4 photosensitizers at concentrations of 0.25 μM, 0.5 μM and 5 μM. As a light source, a diode emitter with a wavelength of 414 nm and a radiation intensity of 5 Jcm^−2, 25 Jcm^−2 was used and at irradiation times of 1 min 33 s, 7min 43 s. In this study, three measurement methods were used—a viability test (MTT), determination of ROS production and monitoring of changes in membrane potential (JC1). […] A suitable combination of photosensitizer and radiation may be an effective therapy for the treatment of cancer.

HeLa and G361 [8] = assay: Photodynamic ROS production; assay type: cell-based; details: TMPyP: 5 μM, 25 Jcm^−2; ZnTPPS4: 0.25 μM, 5 Jcm^−2
Protocol: as §1

[9] = Stability of rhNGF formulated solutions; assay type: physicochemical
Protocol: Drug product formulation. The development of the formulation was addressed to obtain a stable rhNGF solution with suitable characteristics for ocular instillation (pH and osmolality in particular). Excipients already used in ophthalmic preparation were preferred. The stability of rhNGF formulated solutions at different concentrations was investigated in the range of temperature −20 °C–+25 °C. […] Chemical oxidative instability was minimized by the appropriate choice of preparation procedures, lowering O2 head space, using inertized containers and by the addition of an antioxidant. Consequently, methionine as component of formulation, O2 containment during the preparation and O2 head space reduction after filling and before sealing of the container were introduced.

[10] = mass spectroscopy, animal model

Protocol for chondrocytes: The safety and efficacy of nanosystems were determined in terms of hemolytic properties, cytotoxicity, ROS-scavenging activity and anti-inflammatory potency in an OA in vitro cell model. In particular, chondrocytes were stimulated with IL-1β to simulate an inflammatory condition, and treated with nanoparticles or free drugs.

In the case of CC[C@H](C)[C@H](NC(=O)[C@H](CCCCN)NC(=O)[C@@H](NC(=O)[C@H](CCC(N)=O)NC(=O)[C@H](CCCNC(=N)N)NC(=O)CNC(=O)CNC(=O)c1ccc2c(c1)C(=O)OC21c2ccc(O)cc2Oc2cc(O)ccc21)[C@@H](C)CC)C(=O)N[C@@H](Cc1c[nH]c2ccccc12)C(=O)N[C@@H](Cc1ccccc1)C(=O)N[C@@H](CCC(N)=O)C(=O)N[C@@H](CC(N)=O)C(=O)N[C@@H](CCCNC(=N)N)C(=O)N[C@@H](CCCNC(=N)N)C(=O)N[C@@H](CCSC)C(=O)N[C@@H](CCCCN)C(=O)N[C@@H](Cc1c[nH]c2ccccc12)C(=O)N[C@@H](CCCCN)C(=O)N[C@@H](CCCCN)C(=O)O [PNTarg], the “permeability coefficient / diffusion relative to PNT” value [1] was “did not influence its diffusion with respect to PNT”.

For CC[C@H](C)[C@H](NC(=O)[C@H](CCCCN)NC(=O)[C@@H](NC(=O)[C@H](Cc1c[nH]c2ccccc12)NC(=O)[C@H](Cc1ccccc1)NC(=O)[C@H](CCC(N)=O)NC(=O)[C@H](CC(N)=O)NC(=O)[C@H](CCCNC(=N)N)NC(=O)[C@H](CCCNC(=N)N)NC(=O)[C@H](CCSC)NC(=O)[C@H](CCCCN)NC(=O)[C@H](Cc1c[nH]c2ccccc12)NC(=O)[C@H](CCCCN)NC(=O)[C@H](CCCCN)NC(=O)CNC(=O)CNC(=O)c1ccc2c(c1)C(=O)OC21c2ccc(O)cc2Oc2cc(O)ccc21)[C@@H](C)CC)C(=O)N[C@@H](CCC(N)=O)C(=O)N[C@@H](CCCNC(=N)N)C(=O)O [PNTlys] (5FAM-GGKKWKMRRNQFWIKIQR-OH), the “permeability coefficient / diffusion relative to PNT” value [1] was “did not affect the behavior”.

In the case of COc1ccc2c(c1)c(CC(=O)O)c(C)n2C(=O)c1ccc(Cl)cc1 [IND, indomethacin], the oral bioavailability [2] was “about 20%”.

For CNC(C)C1CCC(N)C(OC2C(N)CC(N)C(OC3OCC(C)(O)C(NC)C3O)C2O)O1 (stereo not drawn) [GM, gentamicin], the intracellular antibacterial activity (intracellular S. aureus) was “significant intracellular activity”.

With Cc1ccc(-c2cc(C(F)(F)F)nn2-c2ccc(S(N)(=O)=O)cc2)cc1 [CXB, celecoxib] the antioxidant effect [3] was “inhibitory” and the cytotoxicity on chondrocytes (chondrocytes) was “highly cytotoxic”.

For CO[C@H]1/C=C/O[C@@]2(C)Oc3c(C)c(O)c4c(O)c(c(/C=N/N5CCN(C)CC5)c(O)c4c3C2=O)NC(=O)/C(C)=C\C=C\[C@H](C)[C@H](O)[C@@H](C)[C@@H](O)[C@@H](C)[C@H](OC(C)=O)[C@@H]1C [rifampicin], the solubility in water [4] is listed as 0.14 % w/v.

In the case of “tPA-DPNs: clinical formulation of tPA conjugated to soft discoidal polymeric nanoconstructs”, the “clots dissolved / vessels” value (blood clots; 1.0 mg/kg, about 1 tenth of the clinical dose) was 60%, the “blood clots resolved / vessels recanalized” value (blood clots; intravenous, 2.5 mg/kg) was ~90% and the original activity preserved [5] was “over 60%”.

For TNFα, the “secreted IL6 relative to control cells” value [6] was “fivefold higher” and the “secreted IL6” value ([6]; TNFα 10 ng/mL) was “up to 0.058 pg/mL/n° cells”.

With C[n+]1ccc(-c2c3nc(c(-c4cc[n+](C)cc4)c4ccc([nH]4)c(-c4cc[n+](C)cc4)c4nc(c(-c5cc[n+](C)cc5)c5ccc2[nH]5)C=C4)C=C3)cc1 [TMPyP] the “efficacy in MTT test” value (HeLa and G361 [7]) was “higher efficacy” and the ROS production (HeLa and G361 [8]) was “more pronounced increase”.

With COc1cc(/C=C/C(=O)CC(=O)/C=C/c2ccc(O)c(OC)c2)ccc1O [CUR, Curcumin] the cytotoxicity on chondrocytes (chondrocytes) was “highly cytotoxic”.

In the case of “rhNGF: human recombinant Nerve Growth Factor”, the deamidation on storage ([9]; formulated solutions at different concentrations, −20 °C–+25 °C) was “no deamidation was observed” and the oxidation on storage ([9]; formulations after 3–9 months of storage) was “only an oxidized rhNGF form was observed in some cases”.

In the case of CN(Cc1nc2c(N)nc(N)nc2[nH]c1=O)c1ccc(C(=O)N[C@@H](CCC(=O)O)C(=O)O)cc1 [7OH-MTX, 7-hydroxymethotrexate], the “metabolite status in vivo” value [10] was “not the major metabolite”.
